Patent publication US11208381B2, “Indole derivatives and their use as protein kinase inhibitors” (RespiVert Limited, priority 2016, dated 2021)

Experiments:
PDGFRβ = PDGFRβ (Homo sapiens (Human), UniProt P09619); assay: PDGFRβ enzyme inhibition (ADP-Glo assay); assay type: biochemical; details: mean, n = 2 (nintedanib n = 34)
[1] = Pharmacokinetic measurements in rats, intra-tracheal dosing; assay type: in vivo; details: rat; for Lung conc i.t./i.v. Ratio at time 0.1 h / Lung conc i.t./i.v. Ratio at time 1.5 h / Lung conc i.t./i.v. Ratio at time 6 h / Lung conc i.t./i.v. Ratio at time 24 h: i.t. versus i.v.; for concentration at 0.1 h: read-out: lung concentration (nM) at time 0.1 h; for concentration at 1.5 h: read-out: lung concentration (nM) at time 1.5 h; for concentration at 6 h: read-out: lung concentration (nM) at time 6 h; for concentration at 24 h: read-out: lung concentration (nM) at time 24 h; for Kp at 0.1 h / Kp at 1.5 h / Kp at 6 h / Kp at 24 h: lung/plasma; for Kp at 0.1 h: read-out: lung/plasma conc ratio at time 0.1 h; for Kp at 1.5 h: read-out: lung/plasma conc ratio at time 1.5 h; for Kp at 6 h: read-out: lung/plasma conc ratio at time 6 h; for Kp at 24 h: read-out: lung/plasma conc ratio at time 24 h
[2] = Pharmacokinetic measurements in rats, intravenous dosing; assay type: in vivo; details: rat; for concentration at 0.1 h: read-out: lung concentration (nM) at time 0.1 h; for concentration at 1.5 h: read-out: lung concentration (nM) at time 1.5 h; for concentration at 6 h: read-out: lung concentration (nM) at time 6 h; for concentration at 24 h: read-out: lung concentration (nM) at time 24 h; for Kp at 0.1 h / Kp at 1.5 h / Kp at 6 h / Kp at 24 h: lung/plasma; for Kp at 0.1 h: read-out: lung/plasma ratio at time 0.1 h; for Kp at 1.5 h: read-out: lung/plasma ratio at time 1.5 h; for Kp at 6 h: read-out: lung/plasma ratio at time 6 h; for Kp at 24 h: read-out: lung/plasma ratio at time 24 h
PAMPA permeability assay = assay type: in vitro ADME; details: PAMPA experimental recovery
[3] = male, CD, lung, other: intra-tracheal
[4] = male, CD, other: intra-tracheal

Chain of PDGFRβ (P09619 33-1106): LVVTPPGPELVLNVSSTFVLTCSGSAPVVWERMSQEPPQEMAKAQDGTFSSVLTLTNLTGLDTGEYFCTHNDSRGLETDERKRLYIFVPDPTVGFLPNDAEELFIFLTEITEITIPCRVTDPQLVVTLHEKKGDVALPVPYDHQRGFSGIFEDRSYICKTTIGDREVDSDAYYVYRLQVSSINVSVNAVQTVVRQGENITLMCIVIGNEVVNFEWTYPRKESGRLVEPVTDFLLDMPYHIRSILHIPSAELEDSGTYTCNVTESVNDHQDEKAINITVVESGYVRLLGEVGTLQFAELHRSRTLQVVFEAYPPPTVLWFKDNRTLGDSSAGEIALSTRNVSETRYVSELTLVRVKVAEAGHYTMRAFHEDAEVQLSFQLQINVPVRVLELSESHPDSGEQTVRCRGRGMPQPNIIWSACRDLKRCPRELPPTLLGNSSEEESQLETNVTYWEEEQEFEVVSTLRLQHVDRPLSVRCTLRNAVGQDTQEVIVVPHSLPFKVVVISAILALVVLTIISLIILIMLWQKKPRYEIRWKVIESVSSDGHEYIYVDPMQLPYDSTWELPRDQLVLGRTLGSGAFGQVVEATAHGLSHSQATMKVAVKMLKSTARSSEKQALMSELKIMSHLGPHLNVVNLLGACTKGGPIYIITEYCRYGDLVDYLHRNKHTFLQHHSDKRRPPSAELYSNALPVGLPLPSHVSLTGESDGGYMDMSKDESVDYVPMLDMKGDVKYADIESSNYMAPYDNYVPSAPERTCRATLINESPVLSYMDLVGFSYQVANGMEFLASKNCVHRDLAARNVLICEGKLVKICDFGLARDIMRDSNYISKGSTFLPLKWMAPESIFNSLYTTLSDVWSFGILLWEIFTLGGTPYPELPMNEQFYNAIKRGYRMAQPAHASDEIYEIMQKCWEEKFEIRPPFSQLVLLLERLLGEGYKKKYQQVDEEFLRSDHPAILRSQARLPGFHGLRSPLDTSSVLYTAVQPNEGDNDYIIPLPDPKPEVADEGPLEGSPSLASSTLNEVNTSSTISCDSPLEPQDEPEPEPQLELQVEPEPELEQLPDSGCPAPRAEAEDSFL

Ki (PDGFRβ) [nM] | Lung conc i.t./i.v. Ratio at time 0.1 h ([1]; 0.1 h) | Lung conc i.t./i.v. Ratio at time 1.5 h ([1]; 1.5 h) | Lung conc i.t./i.v. Ratio at time 6 h ([1]; 6 h) | Lung conc i.t./i.v. Ratio at time 24 h ([1]; 24 h) | concentration at 0.1 h ([2]; male, CD, lung, iv) [nM] | concentration at 1.5 h ([2]; male, CD, lung, iv) [nM] | Kp at 0.1 h ([2]; male, CD, iv) | Kp at 1.5 h ([2]; male, CD, iv) | concentration at 0.1 h [1, 3] [nM] | concentration at 1.5 h [1, 3] [nM] | concentration at 6 h [1, 3] [nM] | concentration at 24 h [1, 3] [nM] | Kp at 0.1 h [1, 4] | Kp at 1.5 h [1, 4] | Kp at 6 h [1, 4] | Kp at 24 h [1, 4] | Compound | other results
9.93 | – | – | – | – | – | – | – | – | – | – | – | – | – | – | – | – | COC(=O)c1cc2c(cc1C)/C(=C(/Nc1ccc(S(=O)(=O)NCCN3CCN(C)CC3)cc1)c1ccccc1)C(=O)N2 [Example 1, (Z)-Methyl 5-methyl-3-(((4-(N-(2-(4-methylpiperazin-1-yl)ethyl)sulfamoyl)phenyl)amino)(phenyl)methylene)-2-oxoindoline-6-carboxylate] | –
– | 3 | 7 | 15 | 14 | – | – | – | – | – | – | – | – | – | – | – | – | COC(=O)c1cc2c(cc1C)/C(=C(/Nc1ccc(C(=O)NCC3CCN(C)CC3)cc1)c1ccccc1)C(=O)N2 [Example 3, (Z)-Methyl 5-methyl-3-(((4-(((1-methylpiperidin-4-yl)methyl)carbamoyl)phenyl)amino)(phenyl)methylene)-2-oxoindoline-6-carboxylate] | –
12.9 | 7 | 12 | 2 | 7 | 765 | 330 | 127 | > 188 | 5510 | 4020 | 1070 | 1670 | 371 | > 2280 | > 606 | > 951 | COC(=O)c1cc2c(cc1C)/C(=C(/Nc1ccc(C(=O)NCCN3CCCN(C)CC3)cc1)c1ccccc1)C(=O)N2 [Example 5, (Z)-Methyl 5-methyl-3-(((4-((2-(4-methyl-1,4-diazepan-1-yl)ethyl)carbamoyl)phenyl)amino)(phenyl)methylene)-2-oxoindoline-6-carboxylate] | concentration at 6 h ([2]; male, CD, lung, iv): 499 nM; concentration at 24 h ([2]; male, CD, lung, iv): 247 nM; Kp at 6 h ([2]; male, CD, iv): > 284; Kp at 24 h ([2]; male, CD, iv): > 140
10.3 | 9.8 | 8.0 | 8.3 | 7.7 | 1000 | 949 | 77 | > 558 | 9830 | 7570 | 7820 | 6440 | 472 | > 4450 | > 4600 | > 3790 | COC(=O)c1cc2c(cc1C)/C(=C(/Nc1ccc(C(=O)NCCN3CCC(N(C)C)CC3)cc1)c1ccccc1)C(=O)N2 [Example 6, (Z)-Methyl 3-(((4-((2-(4-(dimethylamino)piperidin-1-yl)ethyl)carbamoyl)phenyl)amino)(phenyl)methylene)-5-methyl-2-oxoindoline-6-carboxylate] | concentration at 6 h ([2]; male, CD, lung, iv): 939 nM; concentration at 24 h ([2]; male, CD, lung, iv): 837 nM; Kp at 6 h ([2]; male, CD, iv): > 552; Kp at 24 h ([2]; male, CD, iv): > 492
5.76 | – | – | >42 | >10 | 99 | 44 | 2 | 12 | 1530 | 886 | 116 | 27 | 39 | > 265 | > 35 | > 8 | COC(=O)c1cc2c(cc1C)/C(=C(/Nc1ccc(C(=O)NCC(=O)N3CCN(CCO)CC3)cc1)c1ccccc1)C(=O)N2 [Example 7, (Z)-Methyl 3-(((4-((2-(4-(2-hydroxyethyl)piperazin-1-yl)-2-oxoethyl)carbamoyl)phenyl)amino)(phenyl)methylene)-5-methyl-2-oxoindoline-6-carboxylate] | –
8.12 | – | – | – | – | – | – | – | – | – | – | – | – | – | – | – | – | COC(=O)c1cc2c(cc1C)/C(=C(/Nc1ccc(C(=O)NCC(=O)N3CCN(C)CC3)cc1)c1ccccc1)C(=O)N2 [Example 8, (Z)-Methyl 5-methyl-3-(((4-((2-(4-methylpiperazin-1-yl)-2-oxoethyl)carbamoyl)phenyl)amino)(phenyl)methylene)-2-oxoindoline-6-carboxylate] | –
– | 12 | 51 | 45 | 21 | – | – | – | – | – | – | – | – | – | – | – | – | COC(=O)c1cc2c(cc1C)/C(=C(/Nc1ccc(C(=O)NCCN3CCNC(=O)C3)cc1)c1ccccc1)C(=O)N2 [Example 9, (Z)-Methyl 5-methyl-2-oxo-3-(((4-((2-(3-oxopiperazin-1-yl)ethyl)carbamoyl)phenyl)amino)(phenyl)methylene)indoline-6-carboxylate] | –
8.75 | – | – | – | – | – | – | – | – | – | – | – | – | – | – | – | – | COC(=O)c1cc2c(cc1C)/C(=C(/Nc1ccc(C(=O)NCCN3CCC(O)CC3)cc1)c1ccccc1)C(=O)N2 [Example 12, (Z)-Methyl 3-(((4-((2-(4-hydroxypiperidin-1-yl)ethyl)carbamoyl)phenyl)amino)(phenyl)methylene)-5-methyl-2-oxoindoline-6-carboxylate] | –
– | – | – | – | – | – | – | – | – | – | – | – | – | – | – | – | – | COC(=O)c1cc2c(cc1C)/C(=C(/Nc1ccc(C(=O)NC3CCN(C)CC3)cc1)c1ccccc1)C(=O)N2 [Example 18, (Z)-Methyl-5-methyl-3-(((4-((1-methylpiperidin-4-yl)carbamoyl)phenyl)amino)(phenyl)methylene)-2-oxoindoline-6-carboxylate] | % Recovery (PAMPA permeability assay): 84.5%; t½ ([2]; i.v. dose 0.1 (nintedanib 0.42)): 5.1 h; concentration at 0.1 h ([2]; i.v. dose 0.1 (nintedanib 0.42), 0.1 h): 638 nM; concentration at 1.5 h ([2]; i.v. dose 0.1 (nintedanib 0.42), 1.5 h): 306 nM; concentration at 6 h ([2]; i.v. dose 0.1 (nintedanib 0.42), 6 h): 201 nM; concentration at 0.1 h ([1]; i.t. dose 0.1 (nintedanib 0.42), 0.1 h): 6533 nM; concentration at 1.5 h ([1]; i.t. dose 0.1 (nintedanib 0.42), 1.5 h): 5987 nM; concentration at 6 h ([1]; i.t. dose 0.1 (nintedanib 0.42), 6 h): 2351 nM; concentration at 24 h ([1]; i.t. dose 0.1 (nintedanib 0.42), 24 h): 4523 nM
